In brackets after ≈: the same amount, converted by molar mass. Read-outs that look alike come from different tables or passages of the source.
Key:
[1] = Comparative test of solubility in water (Britton-Robinson buffer); conditions: 25 °C
Experimental: 3-(3-(4-(Pyridin-2-yloxymethyl)-benzyl)-isoxazol-5-yl)-pyridin-2-ylamine described in Reference Example 1, which is the parent compound, and the compound of Example 1 were compared for solubility in a Britton-Robinson buffer (ionic strength: 0.3) at 25° C.

[2] = system: C. albicans E81022 strain; assay: Experimental systemic candidal infection model in mice; type: in vivo; conditions: for Mean Survival Days: tail vein at 0.5 and 9 hours after infection, observed until 14 days
Experimental: (1) Preparation of Fungal Inoculant
A standing culture of C. albicans E81022 strain was carried out for 24 hours at 35° C. in sabouraud dextrose agar medium (Difco), and the recovered fungal cells were suspended in sterile physiological saline (Otsuka Pharmaceutical). By counting the fungal number on cytometry plate, the suspension was diluted to 2×10^7 cells/mL with sterilized physiological saline to serve fungal inoculum.
The fungal inoculum was used in an amount of 0.2 mL to inoculate the mice in the tail vein (4×10^6 cells/mouse).
(3) Preparation of Agent Solution, and Treatment
The compound of Example 1 was dissolved in concentrations of 13 mg/mL and 3.25 mg/mL with a 50 mM glycine buffer with a pH of 10 (Wako Pure Chemicals), these solutions were then diluted 10 times with 5% glucose (Otsuka Pharmaceutical). At 0.5 and 9 hours after infection, 0.2 mL of the agent solution was administered into a tail vein of the mice. The agent concentrations were 2.5 and 10 mg/kg (calculated as the active form). The number of animals in one group was 5 animals.
The protective effect was determined by observing life/death until 14 days after infection and calculating the mean survival days. The protective effect on the systemic candidal infection was measured for the compound of Example 1 by the method described in section 2.

[3] = In vitro activity compared with the parent compound; conditions: ratio to parent compound
[4] = Pharmacokinetic evaluation in mice; type: in vivo, ICR mice; conditions: tail vein, 3 mg/kg, FIG. 15
Experimental: (§1) (1) Preparation of Administration Solution
(§2) (2) Administration, and Sampling of Blood and Plasma
Using five-week-old female ICR mice (Charles River Japan), with the number of mouse in one group being 2 mice, the compound according to the present invention and an active form thereof were administered into the tail vein in a dose of 3 mg/kg. The tail vein was punctured 0.25, 0.5, 1.5, 3, 5, and 8 hours after administration, and blood was collected with a heparin-treated pipette.
(§3) (3) Plasma Concentration Measurement Method

[5] = in vivo, 0.4 mg/kg
Experimental: as §1, §2
Blood was collected from the radial cutaneous vein 0.25, 0.5, 1, 2, 4, and 6 hours after administration using a heparin-treated syringe. The blood samples were put into sampling tubes and stored under ice cooling, they were then centrifuged for 5 minutes at 10,500×g and at 4° C. The plasma thus obtained was accurately divided into 5 μL amounts and stored at −20° C. until they were analyzed.
as §3
Imipramine hydrochloride (Sigma) was dissolved in a mixed solution of acetonitrile and methanol (1:1) so that the concentration would be 0.5 μmol/L, to prepare an internal standard substance solution (IS solution). The plasma was melted, 200 μL of IS solution was then added thereto and mixed, and this was centrifuged (deproteinated) for 10 minutes at 1500×g and at 4° C., the supernatant was then analyzed by LC-MS (Waters).

Row | solubility ([1]; Britton-Robinson buffer, pH 5, aqueous buffer) | solubility ([1]; Britton-Robinson buffer, pH 7, aqueous buffer) | solubility ([1]; Britton-Robinson buffer, pH 8, aqueous buffer) | solubility ([1]; Britton-Robinson buffer, pH 9, aqueous buffer) | Compound | solubility ([1]; pH 5, aqueous buffer) | solubility ([1]; pH 7, aqueous buffer) | solubility ([1]; pH 8, aqueous buffer) | solubility ([1]; pH 9, aqueous buffer) | Mean Survival Days ([2]; 3.25 mg/kg (calculated as active form: 2.5 mg/kg)) | Mean Survival Days ([2]; 13 mg/kg (calculated as active form: 10 mg/kg)) | protective effect on the systemic candidal infection (survival versus untreated group) ([2]; life/death until 14 days after infection) | in vitro activity with respect to the parent compound (Reference Example 1) [3] | plasma concentration of the active form after administration of the compound of Example 1 [4] | plasma concentration of the compound of Example 1 [4] | plasma concentration of the active form after administration of the compound of Example 1 [5] | plasma concentration of the compound of Example 1 [5]
1 | < 100 µg/mL | < 100 µg/mL | < 100 µg/mL | < 100 µg/mL | Nc1ncccc1-c1cc(Cc2ccc(COc3ccccn3)cc2)no1 [Parent compound, 3-(3-(4-(Pyridin-2-yloxymethyl)-benzyl)-isoxazol-5-yl)-pyridin-2-ylamine, reference compound] |  |  |  |  |  |  |  |  |  |  |  | 
2 |  |  |  |  | Nc1c(-c2cc(Cc3ccc(COc4ccccn4)cc3)no2)ccc[n+]1COP(=O)([O-])O [Example 1, 2-Amino-1-((phosphonoxy)methyl)-3-(3-((4-((2-pyridinyloxy)methyl)phenyl)methyl)-5-isoxazolyl)-pyridinium] | 1900 µg/mL (≈ 4.06 mM) | 10500 µg/mL (≈ 22.4 mM) | 16400 µg/mL (≈ 35 mM) | > 21100 µg/mL | 7.4 days | 12.8 days | survived for a longer time as compared to the untreated group | 1/100 | increased quickly from immediately after administration | decreased quickly after administration | rose quickly | under the detection limit

Source: patent publication US8513287B2, “Heterocyclic ring and phosphonoxymethyl group substituted pyridine derivatives and antifungal agent containing same” (Eisai R&D Management Co., Ltd., priority 2007, dated 2013)
